Experimental data as given in ChEMBL document CHEMBL1127759, “Synthesis and in vitro cytotoxicity of 6-vinyluridine and related compounds” (Bioorg Med Chem Lett, 1994).

What follows are molecules tested on L1210 (assay: In vitro growth inhibitory activity against mouse L1210 leukemia cells).
Type: functional, cell-based

Compound	IC50 [µM]
CCOC(=O)/C(Br)=C\c1cc(O)nc(O)n1	1
C/C=C/c1cc(O)nc(O)n1	> 90
C=Cc1nc(O)nc(O)c1Br	11
C/C=C\c1cc(O)nc(O)n1	46
CCOC(=O)/C(Cl)=C\c1cc(O)nc(O)n1	3
C=Cc1nc(O)nc(O)c1I	2
CCOC(=O)/C=C/c1cc(O)nc(O)n1	38
CCOC(=O)/C(C)=C/c1cc(=O)[nH]c(=O)n1C1O[C@H](CO)[C@@H](O)[C@H]1O (some centres undefined)	> 30
C=Cc1cc(=O)[nH]c(=O)n1C1O[C@H](CO)[C@@H](O)[C@H]1O (some centres undefined)	12

Continued, values first:

IC50 [µM]	Compound
3	C=Cc1cc(O)nc(O)n1
4.5	C=Cc1nc(O)nc(O)c1Cl
> 25	COC(=O)/C(Br)=C\c1cc(=O)[nH]c(=O)n1C1O[C@H](CO)[C@@H](O)[C@H]1O (some centres undefined)
> 35	CCOC(=O)/C=C/c1cc(=O)[nH]c(=O)n1C1O[C@H](CO)[C@@H](O)[C@H]1O (some centres undefined)
> 35	C/C=C/c1cc(=O)[nH]c(=O)n1C1O[C@H](CO)[C@@H](O)[C@H]1O (some centres undefined)
